Here are results for eight molecules from patent publication US7622638B2, “Genetic manipulation of condensed tannins” (priority 2002, dated 2009).

The subject of assay [1] is MtBAN. Put plainly: Anthocyanidin reductase activity assay with recombinant MtBAN protein extract (HPLC of products). The note with it: for conversion of flavan-3-ol into its isomer on incubation with MtBAN: in the presence of NADPH; for reduction of anthocyanidin substrate to flavan-3-ol product(s) by MtBAN: MtBAN protein extract, NADPH, Tris-HCl pH 7.0, 30° C. for 30 min, HPLC. In kind it is biochemical, Medicago truncatula.

The target of assay [2] is AtBAN (Arabidopsis thaliana, UniProt Q9SEV0). It counts as biochemical. The note with it: for conversion of flavan-3-ol into its isomer on incubation with AtBAN: in the presence of NADPH; for reduction of anthocyanidin substrate to flavan-3-ol product by AtBAN: AtBAN protein extract (4 month old frozen), NADPH as coenzyme, HPLC.
Sequence of AtBAN (Q9SEV0 other isoform, or with tags, fused parts or gaps K55Q/I146L/V156I/E157D/T179K/K185E): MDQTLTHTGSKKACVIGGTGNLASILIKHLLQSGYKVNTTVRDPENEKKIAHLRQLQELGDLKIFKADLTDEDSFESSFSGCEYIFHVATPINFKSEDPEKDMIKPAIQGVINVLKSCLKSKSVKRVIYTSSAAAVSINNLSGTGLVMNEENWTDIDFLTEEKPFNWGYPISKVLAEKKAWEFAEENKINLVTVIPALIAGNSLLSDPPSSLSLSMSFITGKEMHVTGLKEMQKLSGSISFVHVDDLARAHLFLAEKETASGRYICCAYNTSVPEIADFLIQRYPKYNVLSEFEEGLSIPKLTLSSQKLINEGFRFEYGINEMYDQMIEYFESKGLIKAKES
Assay [3] relates to Anthocyanidin reductase. Put plainly: Anthocyanidin reductase assay with desalted crude enzyme from Lotus corniculatus leaves. The note with it: young leaves; 100 μM cyanidin, 1 mM NADPH, 30° C. for 30 min. In kind it is biochemical. The procedure:
(§1) Lotus corniculatus, Desmodium uncinatum and Barley cv. Morex were grown in a green house. Young leaves from L. corniculatus, unexpanded leaves, and young pods as well as open flowers and flower buds from D. uncinatum, and young grains from Barley were collected. Testa of barley grains were excised and pooled together for enzyme extraction. Mature grape fruit stored at −80° C. was treated in pH 7 100 mM Tris.HCl buffer for 30 seconds for isolated the skin for enzyme extraction.
(§2) A fresh one-gram leaf sample of L. corniculatus, one-gram testa from barley, and 9 grams of grape fruit skin, as well as two grams of flowers, 3 grams of young pods and 3 grams of young unexpanded leaves from Desmodium uncinatum were ground into homogenate fine powder in liquid nitrogen. The follow buffer systems were used for enzyme extraction. Extraction buffer 1: pH7 100 mM Tris.HCl, 10% glycerol and 2 mM 1,4-dithiothreitol; Extraction buffer 2: pH8 50 mM phosphate buffer, 10% glycerol, 1.5% polyethyleneglycerol 4000 (PEG-4000), 2 mM pH 8.0 Na-DETA, 25 mM sodium ascorbate, 20 mM β-mecaptoenthanol, and 5 mM 1,4-dithiothreitol; Extraction buffer 3: pH8 100 mM Tris.HCl, 10% glycerol 1.5% polyethyleneglycerol 4000 (PEG-4000), 2 mM pH 8.0 Na-DETA, 25 mM sodium ascorbate, 80 mM β-mecaptoenthanol, and 5 mM 1,4-dithiothreitol. […]

For assay [4], the system named is Anthocyanidin reductase. Put plainly: Anthocyanidin reductase assay with desalted crude enzyme from grape fruit skin. It counts as biochemical, Vitis vinifer. The note with it: 100 μM cyanidin, 1 mM NADPH, 30° C. for 30 min. The procedure: as §1, §2
Assay [5] relates to Anthocyanidin reductase. Put plainly: Anthocyanidin reductase assay with desalted crude enzyme from barley testa tissue. It counts as biochemical, Hordeum vulgera (barley) cv. morex. The note with it: 100 μM cyanidin, 1 mM NADPH, 30° C. for 30 min. The procedure: as §1, §2
Assay [6] relates to Anthocyanidin reductase (ANR). Put plainly: Anthocyanidin reductase assay with desalted crude enzyme from Desmodium uncinatum tissues. In kind it is biochemical. The note with it: 100 μM cyanidin, 1 mM NADPH. As for the experimental part: as §1
A fresh one-gram leaf sample of L. corniculatus, one-gram testa from barley, and 9 grams of grape fruit skin, as well as two grams of flowers, 3 grams of young pods and 3 grams of young unexpanded leaves from Desmodium uncinatum were ground into homogenate fine powder in liquid nitrogen. The follow buffer systems were used for enzyme extraction. Extraction buffer 1: pH7 100 mM Tris.HCl, 10% glycerol and 2 mM 1,4-dithiothreitol; Extraction buffer 2: pH8 50 mM phosphate buffer, 10% glycerol, 1.5% polyethyleneglycerol 4000 (PEG-4000), 2 mM pH 8.0 Na-DETA, 25 mM sodium ascorbate, 20 mM β-mecaptoenthanol, and 5 mM 1,4-dithiothreitol; Extraction buffer 3: pH8 100 mM Tris.HCl, 10% glycerol 1.5% polyethyleneglycerol 4000 (PEG-4000), 2 mM pH 8.0 Na-DETA, 25 mM sodium ascorbate, 80 mM β-mecaptoenthanol, and 5 mM 1,4-dithiothreitol.
The homogenate powder of lotus leaf and barley testa tissue was suspended in 5 ml extraction buffer 1, in which 1% proteinase inhibitor (Sigma) (V/V) was added. The homogenate powder of flowers and pods from Desmodium was suspended in extraction buffer 2, also in which 1% proteinase inhibitor (Sigma) (V/V) was added. The fine powder of Desmodium leaves or grape fruit skin was respectively suspended in 6 ml or 50 ml extraction buffer 3, in which 1% proteinase inhibitor (Sigma) (V/V) is added. The homogenates were vortexed vigorously and stayed on ice for 5-10 mm, squeezed through microcloth into 50 ml tubes and then 1/5 (W/V) equilibrated Dowex 1×2 was added into collected squeezed mixture solution. […]

Where [7] appears, read: reactions containing leucoanthocyanidins, repeated attempts.

For `Oc1cc(O)c2c(c1)O[C@H](c1ccc(O)c(O)c1)[C@@H](O)C2` [(+)-catechin], the “conversion of flavan-3-ol into its isomer on incubation with MtBAN” value in assay [1] is “does not produce”. Also, the “conversion of flavan-3-ol into its isomer on incubation with AtBAN” value in assay [2] is on record as “does not produce”.

As for `Oc1cc(O)c2c(c1)O[C@H](c1ccc(O)c(O)c1)[C@H](O)C2` [(−) epicatechin, (−)-epicatechin], the “conversion of flavan-3-ol into its isomer on incubation with MtBAN” value in assay [1] is recorded as “does not produce”. Moreover, in assay [2], the “conversion of flavan-3-ol into its isomer on incubation with AtBAN” value is listed as “does not produce”.

For the molecule `NC(=O)C1=CN([C@@H]2O[C@H](COP(=O)(O)OP(=O)(O)OC[C@H]3O[C@@H](n4cnc5c(N)ncnc54)[C@H](O)[C@@H]3O)[C@@H](O)[C@H]2O)C=CC1` [NADH], the “conversion with NADH relative to the level achieved with NADPH at the same concentration” value in assay [1] (NADH 2 mM final concentration substituted for NADPH) is listed as “approximately 50%”.

On to `NC(=O)C1=CN([C@@H]2O[C@H](COP(=O)(O)OP(=O)(O)OC[C@H]3O[C@@H](n4cnc5c(N)ncnc54)[C@H](OP(=O)(O)O)[C@@H]3O)[C@@H](O)[C@H]2O)C=CC1` [NADPH], for which the “co-factor dependence of conversion of anthocyanidins to flavan-3-ols” value in assay [1] (NADPH omitted from the enzyme assay mixtures) was “NADPH-dependent”.

For `Oc1cc(O)c2cc(O)c(-c3ccc(O)c(O)c3)[o+]c2c1.[Cl-]` [cyanidin, cyanidin chloride], the “reduction of anthocyanidin substrate to flavan-3-ol product(s) by MtBAN” value (“reduction of anthocyanidin substrate … by MtBAN” below) in assay [1] is “reducing cyanidin to the corresponding flavan-3-ols, catechin and epicatechin”. Moreover, the “reduction of anthocyanidin substrate to flavan-3-ol product by AtBAN” value (shortened to “reduction of anthocyanidin substrate … by AtBAN”) in assay [2] was “reduction of cyanidin to epicatechin”. Also, the “conversion of cyanidin by extract with NADPH” value in assay [3], in assay [4], in assay [5], in assay [6] (ANR from flowers), in assay [6] (ANR from leaves) and in assay [6] (ANR from young pods) was “producing epicatechin” throughout.

In the case of `Oc1cc(O)c2cc(O)c(-c3cc(O)c(O)c(O)c3)[o+]c2c1` [delphinidin, delphinidin chloride], the “reduction of anthocyanidin substrate … by MtBAN” value in assay [1] was “catalyzed the reduction of delphinidin into putative gallo-catechin and epi-gallocatechin”. Moreover, in assay [2], the “reduction of anthocyanidin substrate … by AtBAN” value is reported as “delphinidin into gallocatechin”.

Turning to `Oc1ccc(-c2[o+]c3cc(O)cc(O)c3cc2O)cc1` [pelargonidin, Pelargonidin chloride], the “reduction of anthocyanidin substrate … by MtBAN” value in assay [1] is “tentatively identified as epi-afzelechin”. Moreover, the “reduction of anthocyanidin substrate … by AtBAN” value in assay [2] was “pelargonidin into epi-alfzelechin”.

Take leucoanthocyanidins: in assay [1] (setting [7]), the “LAR activity with recombinant MtBAN” value is reported as “no LAR activity was observed”. For the same molecule, the “LAR activity with recombinant AtBAN” value in assay [2] (setting [7]) is reported as “no LAR activity was observed”.
